The assay addresses T1, Recombinant human EP300 containing the bromodomain (EP300-BD (1040-1161)) (Homo sapiens, UniProt Q09472).
T1 construct: Recombinant human EP300 bromodomain (EP300-BD (1040-1161)); made in house; host or cells: E. coli BL21-CodonPlus (DE3), modified pET vector
T1 sequence (Q09472 1040-1161): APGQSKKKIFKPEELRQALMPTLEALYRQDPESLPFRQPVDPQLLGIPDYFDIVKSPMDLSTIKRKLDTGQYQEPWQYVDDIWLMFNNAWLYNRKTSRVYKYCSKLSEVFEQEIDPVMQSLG
Description: EP300 Alphascreen binding assay. The procedure: EP300 Alphascreen Binding Assay
Binding of compounds of Formula (I) with EP300 was assessed using Alphascreen™ binding assay. The inhibition of the interaction between the EP300 bromodomain and its acetylated target protein was measured quantitatively using recombinant EP300 protein, an acetylated Histone 3 peptide and AlphaScreen™ technology. In absence of inhibition of the EP300 protein bound to AlphaScreen™ nickel chelate acceptor beads can interact with the acetylated Histone 3 peptide which is immobilized by the AlphaScreen™ Streptavidin coated beads. This interaction brings donor and acceptor beads in proximity. The close proximity allows the singlet oxygen produced by laser excitation of the donor beads to reach the acceptor beads and generate a luminescence signal. EP300 inhibitors result in a decrease in the proximity signal through an inhibition of the EP300—acetylated peptide interaction.
Recombinant human EP300 containing the bromodomain (EP300-BD (1040-1161)) was prepared and purified as described in protein expression and purification session. The peptide is human Histone H345-64K56Ac-Biotin (Anaspec CA, USA).
Protocol for EP300 assay: All components were prepared in buffer composed of 50 mM HEPES pH 7.5, 50 mM NaCl, 0.01% BSA, 0.01% Triton X-100, 2 mM DTT. Test compounds and DMSO vehicle were diluted 1:50 in buffer and a 4 μL volume is transferred to an Alphaplate. 5.5 μL of EP300 protein and 5.5 μL of peptide were added to wells containing 4 μL of various concentrations of test compounds of Formula (I) or DMSO vehicle in an Alphaplate (PerkinElmer GA, USA) and incubated for 1 hour at room temperature. 5 μL donor and acceptor bead mixture was then added with final concentrations of 7.5 μg/ml. 60 minutes after bead addition, Alpha signal is read on the Envision spectrometer (λEx 680 nm, λEm 520-620 nm). Final concentrations of bromodomain proteins and peptide are as shown below.
All data were normalized to the mean of 16 high and 16 low control wells on each plate. A four parameter curve fit of the following formula was then applied: Y=A+((B−A)/(1+((C/x)^D))) Where ‘A’ is the minimum, ‘B’ is the maximum, ‘C’ is the IC50 and ‘D’ is the Hill slope. Protein Expression and Purification
Recombinant human EP300 bromodomain (EP300-BD (1040-1161)) was expressed in E. coli cells (in a modified pET vector) with an N-terminal six-His tag and purified using a combination of both IMAC (Ni-affinity) and size exclusion chromatography steps.
Recombinant EP300 protein was expressed using the E. coli strain BL21-CodonPlus (DE3) (Agilent Technologies CA, USA). Cells were grown in Terrific Broth (TB) media to an OD600 of 0.7 at 37° C. at which temperature was reduced to 18° C., protein was induced with 1.0 mM isopropyl-β-D-thiogalactopyranoside (“IPTG”) for 20 hours and harvested by centrifugation at 8500×g for 20 minutes. Cells were re-suspended in 0.1M K2PO4 pH 8.0, 250 mM NaCl, 10% Glycerol, 0.75% NP-40, 25 mM Imidazole, with 0.2 mg/ml Lysozyme, 0.2 mM phenylmethanesulfonyl fluoride (“PMSF”), 25 μg/ml DNase I, incubated on ice for 30 minutes and lysed with a cell disruptor (MicroFluidics MA, USA). The lysate was clarified by centrifugation at 20,000×g for 1 hour. The protein was captured with Ni-NTA resin (Life Technologies, USA). Contaminating proteins were washed off with 50 mM HEPES pH 7.5, 500 mM NaCl, and 5% Glycerol. Following 3× wash steps, protein was eluted step wise using 10, 25, 50, 100, 150, and 250 mM Imidazole in 50 mM HEPES pH 7.5, 500 mM NaCl, and 5% glycerol. The protein was further purified using a size exclusion column (26/600 Superdex 200, GE Biosciences NJ, USA) in 10 mM HEPES pH 7.5, […].
On the technique in general: Bead proximity is the source of the signal in Alpha formats.

For the compound `Cc1ccc(S(=O)(=O)n2cc(-c3ccc(C(=O)O)cc3)c3cc(-c4c(C)noc4C)cnc32)cc1` [P-0006, 4-(5-(3,5-dimethylisoxazol-4-yl)-1-tosyl-1H-pyrrolo[2,3-b]pyridin-3-yl)benzoic acid], the IC50 (usually the midpoint of a concentration-inhibition curve) is 1000 to 8000 nM.
For the compound `Cc1noc(C)c1-c1cnc2c(c1)c(-c1ccc(C(=O)O)cc1)cn2C(c1ccccn1)C1CC1` (centres unmarked) [P-0007, 4-(1-(cyclopropyl(pyridin-2-yl)methyl)-5-(3,5-dimethylisoxazol-4-yl)-1H-pyrrolo[2,3-b]pyridin-3-yl)benzoic acid], the IC50 was 0.1 to 1000 nM.
For `Cc1noc(C)c1-c1cnc2c(c1)c(-c1ccc(C(=O)O)cc1)cn2C(c1ccccn1)C1CCC1` (centres unmarked) [P-0008, 4-(1-(cyclobutyl(pyridin-2-yl)methyl)-5-(3,5-dimethylisoxazol-4-yl)-1H-pyrrolo[2,3-b]pyridin-3-yl)benzoic acid] the value was 0.1 to 1000 nM; for `Cc1noc(C)c1-c1cnc2c(CC3CCC3)cn(-c3ccc(C(=O)O)cn3)c2c1` [P-0009, 6-(3-(cyclobutylmethyl)-6-(3,5-dimethylisoxazol-4-yl)-1H-pyrrolo[3,2-b]pyridin-1-yl)nicotinic acid], 0.1 to 1000 nM.
For `Cc1noc(C)c1-c1cnc2c(CC3CC3)cn(-c3ccc(C(=O)O)cn3)c2c1` [P-0010, 6-(3-(cyclopropylmethyl)-6-(3,5-dimethylisoxazol-4-yl)-1H-pyrrolo[3,2-b]pyridin-1-yl)nicotinic acid] the value was 0.1 to 1000 nM; for `Cc1noc(C)c1-c1cnc2c(Cc3ccccn3)cn(-c3ccc(C(=O)O)cn3)c2c1` [P-0011, 6-(6-(3,5-dimethylisoxazol-4-yl)-3-(pyridin-2-ylmethyl)-1H-pyrrolo[3,2-b]pyridin-1-yl)nicotinic acid], 0.1 to 1000 nM.
With `Cc1noc(C)c1-c1cnc2c(c1)c(-c1ccc(C(=O)O)cc1)cn2C(c1ccccn1)c1ccccn1` [P-0012, 4-(1-(di(pyridin-2-yl)methyl)-5-(3,5-dimethylisoxazol-4-yl)-1H-pyrrolo[2,3-b]pyridin-3-yl)benzoic acid] the figure was 0.1 to 1000 nM; with `Cc1noc(C)c1-c1cnc2c(c1)c(-c1ccc(C(=O)O)cc1F)cn2[C@@H](C)c1ccccn1` [P-0097, (S)-4-(5-(3,5-dimethylisoxazol-4-yl)-1-(1-(pyridin-2-yl)ethyl)-1H-pyrrolo[2,3-b]pyridin-3-yl)-3-fluorobenzoic acid], 0.1 to 1000 nM.
For the compound `COc1ccc(C(=O)O)cc1-n1cc(CC2CCC2)c2ncc(-c3c(C)noc3C)cc21` [P-0098, 3-(3-(cyclobutylmethyl)-6-(3,5-dimethylisoxazol-4-yl)-1H-pyrrolo[3,2-b]pyridin-1-yl)-4-methoxybenzoic acid], the IC50 fell in the range of 0.1 to 1000 nM.
For `Cc1noc(C)c1-c1cnc2c(C(=O)c3cccc(OC(F)F)c3)cn(-c3ccnc(C(=O)O)c3)c2c1` [P-0099, 4-(3-(3-(difluoromethoxy)benzoyl)-6-(3,5-dimethylisoxazol-4-yl)-1H-pyrrolo[3,2-b]pyridin-1-yl)picolinic acid] the value was 0.1 to 1000 nM; for `Cc1noc(C)c1-c1cnc2c(Cc3cccc(OC(F)F)c3)cn(-c3ccnc(C(=O)O)c3)c2c1` [P-0100, 4-(3-(3-(difluoromethoxy)benzyl)-6-(3,5-dimethylisoxazol-4-yl)-1H-pyrrolo[3,2-b]pyridin-1-yl)picolinic acid], 0.1 to 1000 nM.
Regarding `Cc1noc(C)c1-c1cnc2c(c1)c(-c1cccc(C(=O)O)c1)cn2CC1CC(F)(F)C1` [P-0101, 3-(1-((3,3-difluorocyclobutyl)methyl)-5-(3,5-dimethylisoxazol-4-yl)-1H-pyrrolo[2,3-b]pyridin-3-yl)benzoic acid], the IC50 lay in the range of 0.1 to 1000 nM.
With `Cc1noc(C)c1-c1cnc2c(c1)c(-c1cccc(C(=O)O)c1)cn2CC1(C)COC1` [P-0102, 3-(5-(3,5-dimethylisoxazol-4-yl)-1-((3-methyloxetan-3-yl)methyl)-1H-pyrrolo[2,3-b]pyridin-3-yl)benzoic acid] the figure was 1000 to 8000 nM.
With `COc1cc(C(=O)O)cc(OC)c1-c1cn([C@@H](C)c2ccccn2)c2ncc(-c3c(C)noc3C)cc12` [P-0103, (S)-4-(5-(3,5-dimethylisoxazol-4-yl)-1-(1-(pyridin-2-yl)ethyl)-1H-pyrrolo[2,3-b]pyridin-3-yl)-3,5-dimethoxybenzoic acid] the figure was 0.1 to 1000 nM; with `Cc1noc(C)c1-c1cnc2c(CC3CCC3)cn(-c3ccc(C#N)c(C(=O)O)c3)c2c1` [P-0104, 2-cyano-5-(3-(cyclobutylmethyl)-6-(3,5-dimethylisoxazol-4-yl)-1H-pyrrolo[3,2-b]pyridin-1-yl)benzoic acid], 0.1 to 1000 nM; with `Cc1noc(C)c1-c1cnc2c(CC3CCC3)cn(-c3ccc(C(=O)O)c(C#N)c3)c2c1` [P-0105, 2-cyano-4-(3-(cyclobutylmethyl)-6-(3,5-dimethylisoxazol-4-yl)-1H-pyrrolo[3,2-b]pyridin-1-yl)benzoic acid], 0.1 to 1000 nM.
For `Cc1noc(C)c1-c1cnc2c(c1)c(-c1cncc(C(=O)O)n1)cn2[C@@H](C)c1ccccn1` [P-0106, (S)-6-(5-(3,5-dimethylisoxazol-4-yl)-1-(1-(pyridin-2-yl)ethyl)-1H-pyrrolo[2,3-b]pyridin-3-yl)pyrazine-2-carboxylic acid] the value was 1000 to 8000 nM; for `Cc1noc(C)c1-c1cnc2c(c1)c(-c1nccc(C(=O)O)n1)cn2[C@@H](C)c1ccccn1` [P-0107, (S)-2-(5-(3,5-dimethylisoxazol-4-yl)-1-(1-(pyridin-2-yl)ethyl)-1H-pyrrolo[2,3-b]pyridin-3-yl)pyrimidine-4-carboxylic acid], 1000 to 8000 nM.
`CCOc1cc(C(=O)O)cc(F)c1-n1cc(CC2CCC2)c2ncc(-c3c(C)noc3C)cc21` [P-0108, 4-(3-(cyclobutylmethyl)-6-(3,5-dimethylisoxazol-4-yl)-1H-pyrrolo[3,2-b]pyridin-1-yl)-3-ethoxy-5-fluorobenzoic acid]: the 50% inhibitory concentration (IC50) is 0.1 to 1000 nM.
With `CCOc1cc(C(=O)O)cc(OCC)c1-n1cc(CC2CCC2)c2ncc(-c3c(C)noc3C)cc21` [P-0109, 4-(3-(cyclobutylmethyl)-6-(3,5-dimethylisoxazol-4-yl)-1H-pyrrolo[3,2-b]pyridin-1-yl)-3,5-diethoxybenzoic acid] the figure was 0.1 to 1000 nM; with `Cc1noc(C)c1-c1cnc2c(CC3CCC3)cn(-c3ccc(C(=O)O)c4ccoc34)c2c1` [P-0110, 7-(3-(cyclobutylmethyl)-6-(3,5-dimethylisoxazol-4-yl)-1H-pyrrolo[3,2-b]pyridin-1-yl)benzofuran-4-carboxylic acid], 0.1 to 1000 nM; with `Cc1noc(C)c1-c1cnc2c(CC3CCC3)cn(-c3c(OC(C)C)cc(C(=O)O)cc3OC(C)C)c2c1` [P-0111, 4-(3-(cyclobutylmethyl)-6-(3,5-dimethylisoxazol-4-yl)-1H-pyrrolo[3,2-b]pyridin-1-yl)-3,5-diisopropoxybenzoic acid], 0.1 to 1000 nM.
For the compound `Cc1noc(C)c1-c1cnc2c(c1)c(-c1ccc(C(=O)O)cc1OC(C)C)cn2[C@@H](C)c1ccccn1` [P-0112, (S)-4-(5-(3,5-dimethylisoxazol-4-yl)-1-(1-(pyridin-2-yl)ethyl)-1H-pyrrolo[2,3-b]pyridin-3-yl)-3-isopropoxybenzoic acid], the IC50 lay in the range of 0.1 to 1000 nM.

The values are drawn from patent publication US11446287B2, “Compounds and methods for EP300 or CBP modulation and indications therefor” (Opna Immuno-Oncology SA, priority 2019, dated 2022).
